In this assay the test system is mouse organs. The assay can be described thus: In vivo activity screening in mice: organ mean total flux (p/s) of luciferase activity after injection of F2 LNP pools (Table 6, FIG. 7A-7C). Conditions: luciferase mRNA. On the procedure:
Small rodent biodistribution studies were performed in mice (e.g., C57BL/6J, Balb-c, CD-1, etc.). For evaluating LNP biodistribution and tissue activity upon systemic administration, C57BL/6J mice received dose administration by single intravenous injection via tail vein with LNP formulations (individual or pooled) in PBS, at different dose (0.25-3 mg/kg) levels of firefly luciferase mRNA. At predetermined time points (4-6 hours post-injection), the animals were anesthetized via isoflurane and subjected to in-life imaging sessions for bioluminescence using an In Vivo Imaging System (IVIS). All animals were dosed with D-Luciferin at 15 mg/mL via subcutaneous (SC) injection at 0.2 mL/animal. Animals had their abdomen hair shaved using an animal trimmer. They were then placed so their shaved belly faced up toward the IVIS camera. Whole body imaging sessions were performed 10-15 minutes following D-Luciferin administration.
For in detail organ distribution and activity of LNP formulations, ex vivo imaging sessions were also performed. All animals received SC D-Luciferin and were then euthanized by isoflurane overdose, followed by cardiac perfusion with saline. Following perfusion, the organs were collected and subjected to IVIS imaging for luminescence within 10-15 minutes of D-Luciferin injection.
All IVIS images were processed with a computer software to identify the regions of interests for individual organs to detect the total flux (p/s) values as luminescence quantification. Then the total flux values were graphed to evaluate the in vivo activity in each collected organ.
Small rodent biodistribution studies were performed in mice according to the General Study Protocols in Example 3(a). LNPs incorporating lipid compounds were prepared in Formulation F2, with MC3 as lipid compound (Cayman Chemical) prepared using Formulation F2 for comparison. LNP pools (with firefly luciferase mRNA encapsulated) were injected into mice at varying doses, and organ mean total flux (p/s) results (measuring luciferase activity) were then collected according to Example 3(a).
LNPs comprising MC3 used as a control and for cross-mouse comparison. Dose is in mg/kg; LC is Lipid Compound according to Table 1.
Additional screening results for Compounds 7, 13, 14, 26, 33, 38, 39, 40, 48, 60, 61, 89, 103, and 109 in spleen, femur, and muscle are shown in FIG. 7A, FIG. 7B, and FIG. 7C, with MC3 as a used as a control for comparison.

Structures are written as SMILES. Marks after values point to notes of the source that are not given here.

As for `CCCCCCC(CCCC)COC(=O)CCCCCC(=O)OCC(COC(=O)CCCCCC(=O)OCC(CCCC)CCCCCC)(COC(=O)CCCCCC(=O)OCC(CCCC)CCCCCC)COC(=O)CCC(CCCCCC)OC(=O)NCCN1CCCC1` (stereo not shown) [Compound 51, O7-[2,2-bis[[7-(2-butyloctoxy)-7-oxo-heptanoyl]oxymethyl]-3-[4-(2-pyrrolidin-1ylethylcarbamoyloxy)decanoyloxy]propyl]O1-(2-butyloctyl) heptanedioate], for the setting “Mouse 3, dose 1.0 mg/kg”, the “Organ Mean Total Flux Femur” value is reported as 7.5 p/s (×10^6), the “Organ Mean Total Flux Heart” value is recorded as 16.0 p/s (×10^6), the “Organ Mean Total Flux Kidney” value is reported as 7.2 p/s (×10^6) and the “Organ Mean Total Flux Liver” value is reported as 15467 p/s (×10^6). Further, where the note is “Mouse 3, dose 1.0 mg/kg”, the “Organ Mean Total Flux Lung” value is on record as 59.6 p/s (×10^6), the “Organ Mean Total Flux Muscle” value is 16.5 p/s (×10^6), the “Organ Mean Total Flux Pancreas” value is on record as 4.9 p/s (×10^6) and the “Organ Mean Total Flux Spleen” value is listed as 9.7 p/s (×10^6).

For `CCCCC/C=C\CCOC(=O)CCCCCC(=O)OCC(COC(=O)CCCCCC(=O)OCC/C=C\CCCCC)(COC(=O)CCCCCC(=O)OCC/C=C\CCCCC)COC(=O)CCC(CCCC)OC(=O)NCCN1CCCC1` (stereo not shown) [Compound 26, O7-[2,2-bis[[7-[(Z)-non-3-enoxy]-7-oxo-heptanoyl]oxymethyl]-3-[4-(2-pyrrolidin-1-ylethylcarbamoyloxy)octanoyloxy]propyl]O1-[(Z)-non-3-enyl]heptanedioate], for the setting “Mouse 11, dose 0.5 mg/kg”, the “Organ Mean Total Flux Femur” value is reported as 20.0 p/s (×10^6), the “Organ Mean Total Flux Heart” value is given as 1.2 p/s (×10^6), the “Organ Mean Total Flux Kidney” value is recorded as 4.4 p/s (×10^6) and the “Organ Mean Total Flux Liver” value is recorded as 481.0 p/s (×10^6). Besides, for the setting “Mouse 11, dose 0.5 mg/kg”, the “Organ Mean Total Flux Lung” value is 26.9 p/s (×10^6), the “Organ Mean Total Flux Muscle” value is 6.2 p/s (×10^6), the “Organ Mean Total Flux Pancreas” value is 8.2 p/s (×10^6) and the “Organ Mean Total Flux Spleen” value is reported as 152.7 p/s (×10^6).

Take `CCCCC/C=C\CCOC(=O)CCCCC(=O)OCC(COC(=O)CCCCC(=O)OCC/C=C\CCCCC)(COC(=O)CCC(CCCCCC)OC(=O)NCCN1CCCC1)COC(=O)C1CC2(C1)CC(F)(F)C2` (stereo not shown) [Compound 100, O6-[2-[(2,2-difluorospiro[3.3]heptane-6-carbonyl)oxymethyl]-2-[[6-[(Z)-non-3-enoxy]-6-oxo-hexanoyl]oxymethyl]-3-[4-(2-pyrrolidin-1-ylethylcarbamoyloxy)decanoyloxy]propyl]O1-[(Z)-non-3-enyl]hexanedioate]: for the setting “Mouse 12, dose 0.5 mg/kg”, the “Organ Mean Total Flux Femur” value is given as 13.8 p/s (×10^6), the “Organ Mean Total Flux Heart” value is 0.7 p/s (×10^6), the “Organ Mean Total Flux Kidney” value is given as 2.3 p/s (×10^6) and the “Organ Mean Total Flux Liver” value is on record as 273.0 p/s (×10^6). Where the note is “Mouse 12, dose 0.5 mg/kg”, the “Organ Mean Total Flux Lung” value is listed as 37.8 p/s (×10^6), the “Organ Mean Total Flux Muscle” value was 4.0 p/s (×10^6), the “Organ Mean Total Flux Pancreas” value is on record as 25.2 p/s (×10^6) and the “Organ Mean Total Flux Spleen” value was 163.7 p/s (×10^6).

As to `CCCCCCCC(C)OC(=O)CCCCCCC(=O)OCC(COC(=O)CCCCCCC(=O)OC(C)CCCCCCC)(COC(=O)CCCCCCC(=O)OC(C)CCCCCCC)COC(=O)CCC(CCCCCC)OC(=O)NCCN1CCCC1` (stereo not shown) [Compound 37, O1-[2,2-bis[[8-(1-methyloctoxy)-8-oxo-octanoyl]oxymethyl]-3-[4-(2-pyrrolidin-1-ylethylcarbamoyloxy)decanoyloxy]propyl]O8-(1-methyloctyl) octanedioate], where the note is “Mouse 11, dose 0.5 mg/kg”, the “Organ Mean Total Flux Femur” value is reported as 2.2 p/s (×10^6), the “Organ Mean Total Flux Heart” value is recorded as 1.9 p/s (×10^6), the “Organ Mean Total Flux Kidney” value was 0.8 p/s (×10^6) and the “Organ Mean Total Flux Liver” value is given as 1737 p/s (×10^6). In addition, under “Mouse 11, dose 0.5 mg/kg”, the “Organ Mean Total Flux Lung” value was 10.5 p/s (×10^6), the “Organ Mean Total Flux Muscle” value is reported as 5.2 p/s (×10^6), the “Organ Mean Total Flux Pancreas” value is listed as 0.6 p/s (×10^6) and the “Organ Mean Total Flux Spleen” value was 2.5 p/s (×10^6).

For the molecule `CCCCCCC(CCC(=O)OCC(COC(=O)CCCCOC(=O)C(CCCC)CCCCCC)(COC(=O)CCCCOC(=O)C(CCCC)CCCCCC)COC(=O)CCCCOC(=O)C(CCCC)CCCCCC)OC(=O)NCCN1CCCC1` (stereo not shown) [Compound 56, [5-[2,2-bis[5-(2-butyloctanoyloxy)pentanoyloxymethyl]-3-[4-(2-pyrrolidin-1-ylethylcarbamoyloxy)decanoyloxy]propoxy]-5-oxo-pentyl]2-butyloctanoate], for the setting “Mouse 3, dose 1.0 mg/kg”, the “Organ Mean Total Flux Femur” value is given as 6.4 p/s (×10^6), the “Organ Mean Total Flux Heart” value was 17.7 p/s (×10^6), the “Organ Mean Total Flux Kidney” value is 9.4 p/s (×10^6) and the “Organ Mean Total Flux Liver” value was 15800 p/s (×10^6). Under “Mouse 3, dose 1.0 mg/kg”, the “Organ Mean Total Flux Lung” value was 66.6 p/s (×10^6), the “Organ Mean Total Flux Muscle” value is on record as 19.7 p/s (×10^6), the “Organ Mean Total Flux Pancreas” value was 3.4 p/s (×10^6) and the “Organ Mean Total Flux Spleen” value is 13.0 p/s (×10^6).

On to `CCCCC/C=C\CCOC(=O)CCCCC(=O)OCC(COC(=O)CCCCC(=O)OCC/C=C\CCCCC)(COC(=O)CCC(CCCCCC)OC(=O)NCCN1CCCC1)COC(=O)[C@]12CC[C@H](CC1)C2` (stereo partly shown) [Compound 99, O6-[2-[[6-[(Z)-non-3-enoxy]-6-oxo-hexanoyl]oxymethyl]-2-(norbornane-1-carbonyloxymethyl)-3-[4-(2-pyrrolidin-1-ylethylcarbamoyloxy)decanoyloxy]propyl]O1-[(Z)-non-3-enyl]hexanedioate], for which, for the setting “Mouse 12, dose 0.5 mg/kg”, the “Organ Mean Total Flux Femur” value was 7.2 p/s (×10^6), the “Organ Mean Total Flux Heart” value was 0.4 p/s (×10^6), the “Organ Mean Total Flux Kidney” value was 1.2 p/s (×10^6) and the “Organ Mean Total Flux Liver” value is 177.0 p/s (×10^6). Under “Mouse 12, dose 0.5 mg/kg”, the “Organ Mean Total Flux Lung” value is 31.4 p/s (×10^6), the “Organ Mean Total Flux Muscle” value was 6.5 p/s (×10^6), the “Organ Mean Total Flux Pancreas” value is 4.3 p/s (×10^6) and the “Organ Mean Total Flux Spleen” value is given as 47.5 p/s (×10^6).

For `CCCCC/C=C\CCOC(=O)CCCCC(=O)OCC(COC(=O)CCCCC(=O)OCC/C=C\CCCCC)(COC(=O)CCC(CCCCCC)OC(=O)NCCN1CCCC1)COC(=O)CC1CCC1` (stereo not shown) [Compound 73, O6-[2-[(2-cyclobutylacetyl)oxymethyl]-2-[[6-[(Z)-non-3-enoxy]-6-oxo-hexanoyl]oxymethyl]-3-[4-(2-pyrrolidin-1-ylethylcarbamoyloxy)decanoyloxy]propyl]O1-[(Z)-non-3-enyl]hexanedioate], where the note is “Mouse 12, dose 0.5 mg/kg”, the “Organ Mean Total Flux Femur” value is 7.3 p/s (×10^6), the “Organ Mean Total Flux Heart” value was 0.5 p/s (×10^6), the “Organ Mean Total Flux Kidney” value is listed as 1.7 p/s (×10^6) and the “Organ Mean Total Flux Liver” value was 127.7 p/s (×10^6). Besides, for the setting “Mouse 12, dose 0.5 mg/kg”, the “Organ Mean Total Flux Lung” value is on record as 10.6 p/s (×10^6), the “Organ Mean Total Flux Muscle” value is recorded as 6.8 p/s (×10^6), the “Organ Mean Total Flux Pancreas” value was 15.7 p/s (×10^6) and the “Organ Mean Total Flux Spleen” value is on record as 49.2 p/s (×10^6).

`CCCCC/C=C\CCOC(=O)CCCCC(=O)OCC(COC(=O)CCCCC(=O)OCC/C=C\CCCCC)(COC(=O)CCC(CCCCCC)OC(=O)NCCN1CCCC1)COC(=O)C1CCC2C(C1)C2(F)F` (stereo not shown) [Compound 103, O6-[2-[(7,7-difluoronorcarane-3-carbonyl)oxymethyl]-2-[[6-[(Z)-non-3-enoxy]-6-oxo-hexanoyl]oxymethyl]-3-[4-(2-pyrrolidin-1ylethylcarbamoyloxy)decanoyloxy]propyl]O1-[(Z)-non-3-enyl]hexanedioate]: where the note is “Mouse 13, dose 0.5 mg/kg”, the “Organ Mean Total Flux Femur” value is listed as 26.0 p/s (×10^6), the “Organ Mean Total Flux Heart” value is listed as 0.8 p/s (×10^6), the “Organ Mean Total Flux Kidney” value was 2.4 p/s (×10^6) and the “Organ Mean Total Flux Liver” value is reported as 444.3 p/s (×10^6). For the setting “Mouse 13, dose 0.5 mg/kg”, the “Organ Mean Total Flux Lung” value is given as 16.0 p/s (×10^6), the “Organ Mean Total Flux Muscle” value is reported as 4.5 p/s (×10^6), the “Organ Mean Total Flux Pancreas” value is on record as 13.5 p/s (×10^6) and the “Organ Mean Total Flux Spleen” value is 161.3 p/s (×10^6).

For the origin of these results see patent publication US20260234115A1, “LIPID COMPOUNDS, COMPOSITIONS, AND USES THEREOF” (Liberate Bio, Inc., priority 2023, published 2026).
